# Test results: US11135252B2, “Probiotic therapies for developmental disorders and other neurological disorders” (Baylor College of Medicine, priority 2016, dated 2021)
# “Also recorded” adds a separate entry of the source.
# Test system: MHFD offspring
# Assay: Three-chamber social test in MHFD offspring
# Assay type: in vivo, mice
# Conditions: in drinking water, 4 weeks
# Protocol: Crawley's three-chamber test for sociability and preference for social novelty was performed as described (Silverman et al., 2010). In brief, the mouse first experienced a 10-minute period of habituation during which it was allowed to freely explore a 60×40×23 cm Plexiglass arena divided into three equally sized, interconnected chambers (Left, Center, Right). Sociability was measured during a second ten-minute period in which the subject could interact either with an empty wire cup (Empty) or a wire cup containing an age and sex-matched stranger conspecific (Mouse 1). Time spent interacting (sniffing, crawling upon) with either the empty cup or the stranger mouse contained in the other cup as well as time spent in each chamber was recorded using the AnyMaze software, by independent observers. Empty cup placement in the Left or Right chamber during the Sociability period was counterbalanced between trials. Finally, preference for social novelty was assayed by introducing a second stranger mouse (Mouse 2) into the previously the empty wire cup. Time spent in each chamber as well as time spent interacting with either Mouse 1 or Mouse 2 was recorded using the automated AnyMaze software by independent observers. Lactobacillus reuteri MM4-1A (ATCC-PTA-6475) and Lactobacillus johnsonii (ATCC 33200) were cultured anaerobically in MRS broth in a 90% N2, 5% CO2, 5% H2 environment. L. reuteri was heat-killed by keeping the bacteria at 80° C. for 20 minutes (Wang et al., 2010). Bacterial viability was assessed by plating and the efficacy of the heat-kill procedure was confirmed by the absence of colony growth following plating. Cultures were centrifuged, washed, and resuspended in anaerobic solution (PBS) and frozen at −80° C. until use. PBS, live or heat-killed L. reuteri were added to the drinking water, which was changed daily to minimize dosage variability. Whereas the experimental group received live bacteria, one control group received identically prepared cultures of heat-killed bacteria. A second group of control mice received water treated with PBS alone. Live and heat-killed L. reuteri were supplied at a dosage of 1×10^8 organisms/mouse/day continuously in drinking water. Mice consumed the treated water ad libitum over the treatment period. The treated drinking water for each group was replaced daily two hours prior to the onset of the dark cycle to minimize variation in microbial exposure. Behavioral assays were initiated after 4-weeks of L. reuteri or control treatment. The protocol of the L. johnsonii preparation and administration matched the L. reuteri protocol. Fecal samples for sequencing and tissue used in the immunofluorescence studies were collected at the end of the treatment. Oxytocin was obtained from Tocris Bioscience (product 1910) and solubilized in 10% dimethyl sulfoxide (DMSO) in PBS. 10% DMSO in PBS was used as the vehicle control. Mice received oxytocin intranasally (at approximately 200 μg/kg) thirty minutes prior to behavior. 1.25 μl of oxytocin or vehicle solution was injected into each nostril from P10 pipette. Oxytocin dose was selected according to dosages reported to rescue social behavior in genetic models phenotypically expressing ASD-like behaviors (Penagarikano et al., 2015).
substance,measurement,value
Lactobacillus johnsonii (ATCC 33200) [L. johnsonii],social behavior / social deficits (sociability and preference for social novelty),failed to rescue social behaviors; also recorded: Failed to Reverse Social Deficits
